Measured values reported in ChEMBL document CHEMBL1144629, “Synthesis and in vivo antihyperglycemic activity of nature-mimicking furanyl-2-pyranones in STZ-S model” (2007).

Experiments:
Format in all cases: functional
Design in all cases: scale not given: the % may be the effect or the level left
Rattus norvegicus [1] = assay: Antihyperglycemic activity in STZ-induced diabetic Sprague-Dawley rat assessed as decrease in blood glucose at 100 mg/kg, po after 120 mins relative to control
Rattus norvegicus [2] = assay: Antihyperglycemic activity in STZ-induced diabetic Sprague-Dawley rat assessed as decrease in blood glucose at 100 mg/kg, po after 60 mins relative to control
Rattus norvegicus [3] = assay: Antihyperglycemic activity in STZ-induced diabetic Sprague-Dawley rat assessed as decrease in blood glucose at 100 mg/kg, po after 240 mins relative to control
Rattus norvegicus [4] = assay: Antihyperglycemic activity in STZ-induced diabetic Sprague-Dawley rat assessed as decrease in blood glucose at 100 mg/kg, po after 5 hrs relative to control
Rattus norvegicus [5] = assay: Antihyperglycemic activity in STZ-induced diabetic Sprague-Dawley rat assessed as decrease in blood glucose at 100 mg/kg, po after 90 mins relative to control
Rattus norvegicus [6] = assay: Antihyperglycemic activity in STZ-induced diabetic Sprague-Dawley rat assessed as decrease in blood glucose at 100 mg/kg, po after 24 hrs relative to control
Rattus norvegicus [7] = assay: Antihyperglycemic activity in STZ-induced diabetic Sprague-Dawley rat assessed as decrease in blood glucose at 100 mg/kg, po after 180 mins relative to control
Rattus norvegicus [8] = assay: Antihyperglycemic activity in STZ-induced diabetic Sprague-Dawley rat assessed as decrease in blood glucose at 100 mg/kg, po after 30 mins relative to control

## N#Cc1c(N2CCOCC2)cc(-c2ccco2)oc1=O
Rattus norvegicus [1]
  Activity: 17.4%
Rattus norvegicus [2]
  Activity: 15.9%
Rattus norvegicus [3]
  Activity: 5.2%
Rattus norvegicus [4]
  Activity: 9.8%
Rattus norvegicus [5]
  Activity: 19.8%
Rattus norvegicus [6]
  Activity: 0.5%
Rattus norvegicus [7]
  Activity: 1.8%
Rattus norvegicus [8]
  Activity: 13.1%

## CN(C)C(=N)NC(=N)N [METFORMIN]
Rattus norvegicus [1]
  Activity: 29.2%
Rattus norvegicus [2]
  Activity: 18.2%
Rattus norvegicus [3]
  Activity: 21.1%
Rattus norvegicus [4]
  Activity: 20.7%
Rattus norvegicus [5]
  Activity: 24.5%
Rattus norvegicus [6]
  Activity: 30%
Rattus norvegicus [7]
  Activity: 18.7%
Rattus norvegicus [8]
  Activity: 15.9%

## CSc1cc(-c2cc(C)oc2C)oc(=O)c1C#N
Rattus norvegicus [1]
  Activity: 16.5%
Rattus norvegicus [2]
  Activity: 16.2%
Rattus norvegicus [3]
  Activity: 2.5%
Rattus norvegicus [4]
  Activity: 5.2%
Rattus norvegicus [5]
  Activity: 21.2%
Rattus norvegicus [6]
  Activity: 4.5%
Rattus norvegicus [7]
  Activity: 2.3%
Rattus norvegicus [8]
  Activity: 12.6%

## Cc1cc(-c2cc(N3CCCCC3)c(C#N)c(=O)o2)c(C)o1
Rattus norvegicus [1]
  Activity: 8.7%
Rattus norvegicus [2]
  Activity: 9.4%
Rattus norvegicus [3]
  Activity: 1%
Rattus norvegicus [4]
  Activity: 5.2%
Rattus norvegicus [5]
  Activity: 6.8%
Rattus norvegicus [6]
  Activity: 19.7%
Rattus norvegicus [7]
  Activity: 0.8%
Rattus norvegicus [8]
  Activity: 8.6%

## CSc1cc(-c2cc(C)oc2C)oc(=O)c1C(N)=O
Rattus norvegicus [1]
  Activity: 29.4%
Rattus norvegicus [2]
  Activity: 28.8%
Rattus norvegicus [3]
  Activity: 12.6%
Rattus norvegicus [4]
  Activity: 11.2%
Rattus norvegicus [5]
  Activity: 33%
Rattus norvegicus [6]
  Activity: 23.9%
Rattus norvegicus [7]
  Activity: 16.3%
Rattus norvegicus [8]
  Activity: 13.2%

## N#Cc1c(N2CCCCC2)cc(-c2ccco2)oc1=O
Rattus norvegicus [1]
  Activity: 21.3%
Rattus norvegicus [2]
  Activity: 17.5%
Rattus norvegicus [3]
  Activity: 1.4%
Rattus norvegicus [4]
  Activity: 4.8%
Rattus norvegicus [5]
  Activity: 21.1%
Rattus norvegicus [6]
  Activity: 10.4%
Rattus norvegicus [7]
  Activity: 7.5%
Rattus norvegicus [8]
  Activity: 12.8%

## N#Cc1c(N2CCN(c3ccccc3)CC2)cc(-c2ccco2)oc1=O
Rattus norvegicus [1]
  Activity: 15.9%
Rattus norvegicus [2]
  Activity: 15.7%
Rattus norvegicus [3]
  Activity: 3.9%
Rattus norvegicus [4]
  Activity: 6.1%
Rattus norvegicus [5]
  Activity: 20.2%
Rattus norvegicus [6]
  Activity: 2.5%
Rattus norvegicus [7]
  Activity: 1.9%
Rattus norvegicus [8]
  Activity: 11.8%

## Cc1cc(-c2cc(N3CCOCC3)c(C#N)c(=O)o2)c(C)o1
Rattus norvegicus [1]
  Activity: 29%
Rattus norvegicus [2]
  Activity: 18.4%
Rattus norvegicus [3]
  Activity: 20.7%
Rattus norvegicus [4]
  Activity: 20.3%
Rattus norvegicus [5]
  Activity: 24%
Rattus norvegicus [6]
  Activity: 29.7%
Rattus norvegicus [7]
  Activity: 18.5%
Rattus norvegicus [8]
  Activity: 16.6%

## Cc1cc(-c2cc(N3CCCC3)c(C#N)c(=O)o2)c(C)o1
Rattus norvegicus [1]
  Activity: 20.9%
Rattus norvegicus [2]
  Activity: 17.3%
Rattus norvegicus [3]
  Activity: 1.2%
Rattus norvegicus [4]
  Activity: 4.5%
Rattus norvegicus [5]
  Activity: 20.9%
Rattus norvegicus [6]
  Activity: 10.5%
Rattus norvegicus [7]
  Activity: 7.8%
Rattus norvegicus [8]
  Activity: 12.5%

## CSc1cc(-c2ccco2)oc(=O)c1C(N)=O
Rattus norvegicus [1]
  Activity: 8.9%
Rattus norvegicus [2]
  Activity: 9.6%
Rattus norvegicus [3]
  Activity: 1.3%
Rattus norvegicus [4]
  Activity: 5.52%
Rattus norvegicus [5]
  Activity: 6.3%
Rattus norvegicus [6]
  Activity: 19.3%
Rattus norvegicus [7]
  Activity: 1.2%
Rattus norvegicus [8]
  Activity: 8.5%

## Cc1cc(-c2cc(N3CCC(C)CC3)c(C#N)c(=O)o2)c(C)o1
Rattus norvegicus [1]
  Activity: 16.8%
Rattus norvegicus [2]
  Activity: 16.3%
Rattus norvegicus [3]
  Activity: 2.8%
Rattus norvegicus [4]
  Activity: 5.5%
Rattus norvegicus [5]
  Activity: 20.9%
Rattus norvegicus [6]
  Activity: 4.2%
Rattus norvegicus [7]
  Activity: 2.6%
Rattus norvegicus [8]
  Activity: 12.5%

## CSc1cc(-c2ccco2)oc(=O)c1C#N
Rattus norvegicus [1]
  Activity: 19.8%
Rattus norvegicus [2]
  Activity: 16.5%
Rattus norvegicus [3]
  Activity: 2.3%
Rattus norvegicus [4]
  Activity: 6.8%
Rattus norvegicus [5]
  Activity: 19.6%
Rattus norvegicus [6]
  Activity: 6.7%
Rattus norvegicus [7]
  Activity: 8.1%
Rattus norvegicus [8]
  Activity: 11.8%

## CN1CCN(c2cc(-c3ccco3)oc(=O)c2C#N)CC1
Rattus norvegicus [1]
  Activity: 22.8%
Rattus norvegicus [2]
  Activity: 17.5%
Rattus norvegicus [3]
  Activity: 14.6%
Rattus norvegicus [4]
  Activity: 12.8%
Rattus norvegicus [5]
  Activity: 17.3%
Rattus norvegicus [6]
  Activity: 20%
Rattus norvegicus [7]
  Activity: 16.8%
Rattus norvegicus [8]
  Activity: 12.5%
